# PMC6099238 (Journal of Clinical Pharmacology, 2018)
# Read-outs that look alike come from different tables or passages of the source.
# What was measured:
# serum uric acid = assay: Serum uric acid lowering, phase 1b open-label multiple-dose study; format: in vivo, patients with gout; conditions: for serum uric acid: Change From Baseline, Emax (maximum percentage change from baseline in serum uric acid lowering) / serum uric acid: Change From Baseline, Predose / Subjects With Predose Serum Uric Acid <4 mg/dL / Subjects With Predose Serum Uric Acid <5 mg/dL / Subjects With Predose Serum Uric Acid <6 mg/dL: group 2; for serum uric acid: Change From Baseline, Emax (maximum percentage change from baseline in serum uric acid lowering) / serum uric acid: Change From Baseline, Predose: ALLO 300 mg/day alone (day 7), ALLO 300 mg/LESU 600 mg (day 14), LESU 600 mg/day alone (day 21), % (SE); for Subjects With Predose Serum Uric Acid <4 mg/dL / Subjects With Predose Serum Uric Acid <5 mg/dL / Subjects With Predose Serum Uric Acid <6 mg/dL: ALLO 300 mg/day alone (day 7, n = 10), ALLO 300 mg/LESU 600 mg (day 14, n = 10), LESU 600 mg/day alone (day 21, n = 9)
# urinary urate excretion = assay: Urinary excretion of urate, fractional excretion of urate and xanthine; format: in vivo, patients with gout
# [1] = format: in vivo, patients with gout
# URAT1 = conditions: cited from earlier work
# [2] = ALLO 300 mg/LESU 400 mg versus ALLO 300 mg alone
# [3] = ALLO 300 mg/LESU 600 mg versus ALLO 300 mg alone
smiles,measurement,setting,value
Oc1ncnc2[nH]ncc12 [allopurinol],Emax (serum uric acid lowering),serum uric acid; allopurinol 300 mg (discussion),−37%
same,serum uric acid reduced by,serum uric acid; allopurinol 300 mg/day alone (abstract),37%
same,"serum uric acid: Change From Baseline, Emax (maximum percentage change from baseline in serum uric acid lowering)",serum uric acid,−35.1 (2.3) %
same,"serum uric acid: Change From Baseline, Predose",serum uric acid,−28.7 (2.4) %
same,Subjects With Predose Serum Uric Acid <4 mg/dL,serum uric acid,0 n (%)
same,Subjects With Predose Serum Uric Acid <5 mg/dL,serum uric acid,1 (10) n (%)
same,Subjects With Predose Serum Uric Acid <6 mg/dL,serum uric acid,3 (30) n (%)
same,decrease of 24‐hour urate excretion compared with baseline,urinary urate excretion; allopurinol 300 mg alone,~35%
same,Mean 24‐hour urate excretion compared with baseline,urinary urate excretion; allopurinol 300 mg/day alone,–35%
same,effect on fractional excretion of urate,urinary urate excretion; single agent,no effect
same,effect on xanthine excretion (urine),urinary urate excretion; single agent,increased
O=C(O)CSc1nnc(Br)n1-c1ccc(C2CC2)c2ccccc12 [lesinurad],"serum uric acid: Change From Baseline, Emax (maximum percentage change from baseline in serum uric acid lowering)",serum uric acid,−46.7 (5.5) %
same,"serum uric acid: Change From Baseline, Predose",serum uric acid,−37.2 (1.6) %
same,Subjects With Predose Serum Uric Acid <4 mg/dL,serum uric acid,0 n (%)
same,Subjects With Predose Serum Uric Acid <5 mg/dL,serum uric acid,3 (33) n (%)
same,Subjects With Predose Serum Uric Acid <6 mg/dL,serum uric acid,6 (67) n (%)
same,serum uric acid reduced by,"serum uric acid; lesinurad 400 mg/day, added to allopurinol 300 mg/day or alone (abstract)",44%
same,serum uric acid reduced by,"serum uric acid; lesinurad 600 mg/day, added to allopurinol 300 mg/day or alone (abstract)",47%
same,effect on xanthine excretion (urine),urinary urate excretion; single agent,no significant effect
O=c1[nH]c(=O)c2c[nH]nc2[nH]1 [oxypurinol],Oxypurinol AUC0‐24 Geometric Mean Ratio (90%CI) (Combination/Alone),[1]; [2],74.2 (65.1‐84.7)
same,Oxypurinol Cmax Geometric Mean Ratio (90%CI) (Combination/Alone),[1]; [2],79.4 (69.8‐90.3)
same,Oxypurinol AUC0‐24 Geometric Mean Ratio (90%CI) (Combination/Alone),[1]; [3],64.7 (61.3‐68.3)
same,Oxypurinol Cmax Geometric Mean Ratio (90%CI) (Combination/Alone),[1]; [3],71.7 (67.8‐75.7)
same,Decrease of oxypurinol plasma concentrations,[1]; during co-administration of lesinurad 400 mg with allopurinol 300 mg,approximately 26%
same,Decrease of oxypurinol plasma concentrations,[1]; during co-administration of lesinurad 600 mg with allopurinol 300 mg,~35%
same,Cmax,"[1]; human, plasma, oral, Oxypurinol Cmax, ALLO 300 mg/LESU 600 mg co-administration, geometric mean, n = 10",9660 ng/mL
same,Oxypurinol Tmax,"[1]; plasma, ALLO 300 mg alone, group 1 (before LESU 400 mg), median (range), n = 10",4.00 (3.00‐6.00) h
same,Oxypurinol Cmax,"[1]; plasma, ALLO 300 mg/LESU 400 mg co-administration, geometric mean, n = 10",9.82 (8.66‐11.1) μg/mL
same,transporter substrate,URAT1,substrate of URAT1
